Data published in ChEMBL document CHEMBL3991601, “The target landscape of clinical kinase drugs” (Science, 2017).
Activity calls are given as the source filed them.

What was measured:
[1] = target: Atypical kinase COQ8A, mitochondrial (Homo sapiens, UniProt Q8NI60)
[2] = target: Mitogen-activated protein kinase kinase kinase kinase 4 (Homo sapiens, UniProt O95819)
Midasin = Midasin (Homo sapiens, UniProt Q9NU22)
[3] = target: Dual specificity tyrosine-phosphorylation-regulated kinase 1A (Homo sapiens, UniProt Q13627)
[4] = target: Serine/threonine-protein kinase MRCK beta (Homo sapiens, UniProt Q9Y5S2)
Sequence of Serine/threonine-protein kinase MRCK beta (Q9Y5S2 whole entry): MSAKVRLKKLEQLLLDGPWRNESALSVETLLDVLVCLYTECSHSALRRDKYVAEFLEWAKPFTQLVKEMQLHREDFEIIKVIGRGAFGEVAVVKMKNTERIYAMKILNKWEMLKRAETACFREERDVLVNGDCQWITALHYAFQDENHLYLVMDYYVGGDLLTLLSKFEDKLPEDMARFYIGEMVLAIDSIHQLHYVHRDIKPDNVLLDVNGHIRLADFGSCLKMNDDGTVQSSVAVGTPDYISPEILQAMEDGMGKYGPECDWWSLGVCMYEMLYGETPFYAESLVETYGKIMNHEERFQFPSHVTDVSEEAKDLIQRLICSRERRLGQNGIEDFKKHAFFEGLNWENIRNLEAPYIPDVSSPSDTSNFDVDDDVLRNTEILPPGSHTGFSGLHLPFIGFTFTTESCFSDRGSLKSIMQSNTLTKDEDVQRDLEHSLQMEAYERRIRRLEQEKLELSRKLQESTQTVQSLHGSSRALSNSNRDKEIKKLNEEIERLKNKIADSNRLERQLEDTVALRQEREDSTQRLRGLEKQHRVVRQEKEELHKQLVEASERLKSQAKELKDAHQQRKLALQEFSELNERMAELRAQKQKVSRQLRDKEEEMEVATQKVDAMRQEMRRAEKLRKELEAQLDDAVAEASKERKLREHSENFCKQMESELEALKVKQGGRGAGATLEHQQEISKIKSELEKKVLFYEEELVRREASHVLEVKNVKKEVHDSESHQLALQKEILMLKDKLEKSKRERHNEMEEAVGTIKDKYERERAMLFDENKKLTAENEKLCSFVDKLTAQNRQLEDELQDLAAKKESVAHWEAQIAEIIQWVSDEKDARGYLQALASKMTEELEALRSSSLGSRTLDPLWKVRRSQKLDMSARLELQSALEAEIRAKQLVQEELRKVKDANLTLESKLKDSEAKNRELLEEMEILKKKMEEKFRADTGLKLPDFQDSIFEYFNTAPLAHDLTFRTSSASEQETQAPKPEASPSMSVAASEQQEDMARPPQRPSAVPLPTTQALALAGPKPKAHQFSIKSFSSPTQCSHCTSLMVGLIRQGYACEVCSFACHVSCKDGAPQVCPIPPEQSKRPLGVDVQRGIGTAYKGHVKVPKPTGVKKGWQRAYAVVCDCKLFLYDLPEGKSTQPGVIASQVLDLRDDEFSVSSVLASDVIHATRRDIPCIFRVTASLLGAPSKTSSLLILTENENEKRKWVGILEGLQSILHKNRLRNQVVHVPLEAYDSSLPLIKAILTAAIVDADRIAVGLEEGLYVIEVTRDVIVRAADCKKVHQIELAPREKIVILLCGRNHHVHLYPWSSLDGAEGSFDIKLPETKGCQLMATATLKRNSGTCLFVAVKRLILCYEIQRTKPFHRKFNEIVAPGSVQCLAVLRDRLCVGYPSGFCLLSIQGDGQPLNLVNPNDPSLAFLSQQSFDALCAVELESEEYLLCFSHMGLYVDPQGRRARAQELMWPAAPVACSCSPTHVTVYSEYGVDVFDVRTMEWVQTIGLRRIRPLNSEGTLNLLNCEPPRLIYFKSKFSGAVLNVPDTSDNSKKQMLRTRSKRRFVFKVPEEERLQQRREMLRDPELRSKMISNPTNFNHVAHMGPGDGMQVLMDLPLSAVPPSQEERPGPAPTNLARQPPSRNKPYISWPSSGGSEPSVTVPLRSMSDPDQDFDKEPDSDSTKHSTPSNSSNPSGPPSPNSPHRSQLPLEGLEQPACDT

[5] = target: Serine/threonine-protein kinase SIK2 (Homo sapiens, UniProt Q9H0K1)
Sequence of Serine/threonine-protein kinase SIK2 (Q9H0K1 whole entry): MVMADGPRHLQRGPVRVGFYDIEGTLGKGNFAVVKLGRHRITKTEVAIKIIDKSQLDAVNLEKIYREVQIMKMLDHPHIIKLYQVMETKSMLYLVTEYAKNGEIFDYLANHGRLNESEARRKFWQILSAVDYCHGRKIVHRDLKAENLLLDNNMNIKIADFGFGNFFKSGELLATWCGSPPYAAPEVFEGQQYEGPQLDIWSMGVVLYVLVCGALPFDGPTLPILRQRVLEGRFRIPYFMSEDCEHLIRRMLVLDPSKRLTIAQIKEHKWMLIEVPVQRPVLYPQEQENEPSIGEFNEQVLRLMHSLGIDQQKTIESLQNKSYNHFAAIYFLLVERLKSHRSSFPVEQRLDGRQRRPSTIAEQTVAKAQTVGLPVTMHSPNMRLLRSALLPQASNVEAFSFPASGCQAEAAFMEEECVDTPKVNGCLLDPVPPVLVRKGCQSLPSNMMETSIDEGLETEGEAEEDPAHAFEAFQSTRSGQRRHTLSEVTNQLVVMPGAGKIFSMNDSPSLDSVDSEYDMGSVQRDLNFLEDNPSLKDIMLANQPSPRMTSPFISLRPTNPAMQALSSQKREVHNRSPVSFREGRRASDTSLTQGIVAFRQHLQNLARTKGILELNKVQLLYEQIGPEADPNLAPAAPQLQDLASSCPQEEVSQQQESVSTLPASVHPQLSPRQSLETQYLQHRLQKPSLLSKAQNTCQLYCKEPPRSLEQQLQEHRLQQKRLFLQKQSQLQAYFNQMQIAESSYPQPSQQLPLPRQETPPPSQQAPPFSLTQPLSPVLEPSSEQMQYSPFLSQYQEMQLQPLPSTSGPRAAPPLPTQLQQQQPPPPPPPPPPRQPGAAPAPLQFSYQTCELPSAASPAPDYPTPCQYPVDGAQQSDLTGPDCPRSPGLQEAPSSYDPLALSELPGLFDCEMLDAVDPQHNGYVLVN

Glycine--tRNA ligase = target: T1, Glycine--tRNA ligase (Homo sapiens, UniProt P41250)
T1 sequence (P41250 whole entry): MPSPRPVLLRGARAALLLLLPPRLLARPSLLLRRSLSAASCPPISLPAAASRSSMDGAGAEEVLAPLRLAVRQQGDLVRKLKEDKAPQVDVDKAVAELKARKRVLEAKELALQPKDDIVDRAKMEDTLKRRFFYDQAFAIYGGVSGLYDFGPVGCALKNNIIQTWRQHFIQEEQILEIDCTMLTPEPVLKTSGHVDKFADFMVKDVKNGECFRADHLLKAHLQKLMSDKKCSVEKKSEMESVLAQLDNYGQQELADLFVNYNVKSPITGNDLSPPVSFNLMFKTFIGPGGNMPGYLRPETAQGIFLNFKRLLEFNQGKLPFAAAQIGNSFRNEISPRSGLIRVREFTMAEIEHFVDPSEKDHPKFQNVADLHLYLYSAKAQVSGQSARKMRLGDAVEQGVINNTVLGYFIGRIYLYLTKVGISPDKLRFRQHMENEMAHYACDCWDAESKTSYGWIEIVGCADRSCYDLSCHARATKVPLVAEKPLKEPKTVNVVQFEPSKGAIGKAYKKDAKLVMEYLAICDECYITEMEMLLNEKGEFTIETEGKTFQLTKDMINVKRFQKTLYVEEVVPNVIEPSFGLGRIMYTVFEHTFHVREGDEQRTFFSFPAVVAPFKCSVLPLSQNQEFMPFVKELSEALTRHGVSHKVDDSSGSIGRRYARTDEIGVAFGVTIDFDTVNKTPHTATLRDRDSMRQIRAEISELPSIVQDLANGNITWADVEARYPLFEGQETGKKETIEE

[6] = target: STE20-like serine/threonine-protein kinase (Homo sapiens, UniProt Q9H2G2)
Sequence of STE20-like serine/threonine-protein kinase (Q9H2G2 whole entry, canonical isoform): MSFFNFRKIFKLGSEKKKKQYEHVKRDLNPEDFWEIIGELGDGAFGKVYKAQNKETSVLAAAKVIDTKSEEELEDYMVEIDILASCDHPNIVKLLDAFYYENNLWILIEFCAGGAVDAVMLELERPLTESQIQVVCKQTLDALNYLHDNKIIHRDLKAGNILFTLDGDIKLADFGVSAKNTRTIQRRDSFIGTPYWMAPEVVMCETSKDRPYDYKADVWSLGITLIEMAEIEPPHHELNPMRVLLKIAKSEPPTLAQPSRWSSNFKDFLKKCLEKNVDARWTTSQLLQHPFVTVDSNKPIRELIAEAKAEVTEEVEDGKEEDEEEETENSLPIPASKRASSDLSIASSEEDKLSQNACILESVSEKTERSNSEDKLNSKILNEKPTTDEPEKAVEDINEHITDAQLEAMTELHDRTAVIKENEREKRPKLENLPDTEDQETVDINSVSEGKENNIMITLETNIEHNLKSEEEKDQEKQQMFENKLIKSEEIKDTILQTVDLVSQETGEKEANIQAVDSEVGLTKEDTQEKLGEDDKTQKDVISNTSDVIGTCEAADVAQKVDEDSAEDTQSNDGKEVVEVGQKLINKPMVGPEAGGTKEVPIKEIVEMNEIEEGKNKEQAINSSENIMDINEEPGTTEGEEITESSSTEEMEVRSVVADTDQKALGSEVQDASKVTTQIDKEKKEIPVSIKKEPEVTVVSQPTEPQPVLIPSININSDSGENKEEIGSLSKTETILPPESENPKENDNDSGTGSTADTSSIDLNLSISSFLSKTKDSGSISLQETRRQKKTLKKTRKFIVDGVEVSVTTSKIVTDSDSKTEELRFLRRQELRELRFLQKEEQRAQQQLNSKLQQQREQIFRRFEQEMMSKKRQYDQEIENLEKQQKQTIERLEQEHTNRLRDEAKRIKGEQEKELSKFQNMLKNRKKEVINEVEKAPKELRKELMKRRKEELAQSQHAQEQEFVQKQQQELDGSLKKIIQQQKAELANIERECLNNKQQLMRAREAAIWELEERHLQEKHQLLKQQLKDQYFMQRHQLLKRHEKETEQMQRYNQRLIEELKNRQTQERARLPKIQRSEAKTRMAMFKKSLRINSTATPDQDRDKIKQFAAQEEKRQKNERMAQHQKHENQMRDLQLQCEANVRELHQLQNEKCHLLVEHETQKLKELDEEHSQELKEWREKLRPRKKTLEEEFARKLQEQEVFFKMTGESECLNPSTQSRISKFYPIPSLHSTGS

[7] = target: Casein kinase I isoform epsilon (Homo sapiens, UniProt P49674)
Sequence of Casein kinase I isoform epsilon (P49674 whole entry, canonical isoform): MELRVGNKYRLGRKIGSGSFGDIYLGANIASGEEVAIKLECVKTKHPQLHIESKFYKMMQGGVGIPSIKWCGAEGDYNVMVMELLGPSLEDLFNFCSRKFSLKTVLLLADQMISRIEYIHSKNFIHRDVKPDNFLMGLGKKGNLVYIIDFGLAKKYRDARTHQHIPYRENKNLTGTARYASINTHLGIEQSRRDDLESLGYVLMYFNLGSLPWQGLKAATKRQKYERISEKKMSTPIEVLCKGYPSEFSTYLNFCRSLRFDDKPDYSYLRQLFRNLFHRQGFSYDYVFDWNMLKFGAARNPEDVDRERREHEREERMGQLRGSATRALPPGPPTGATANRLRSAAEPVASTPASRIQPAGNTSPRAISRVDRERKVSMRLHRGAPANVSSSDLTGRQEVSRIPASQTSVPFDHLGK

[8] = target: T2, Mitogen-activated protein kinase 15 (Homo sapiens, UniProt Q8TD08)
T2 sequence (Q8TD08 whole entry): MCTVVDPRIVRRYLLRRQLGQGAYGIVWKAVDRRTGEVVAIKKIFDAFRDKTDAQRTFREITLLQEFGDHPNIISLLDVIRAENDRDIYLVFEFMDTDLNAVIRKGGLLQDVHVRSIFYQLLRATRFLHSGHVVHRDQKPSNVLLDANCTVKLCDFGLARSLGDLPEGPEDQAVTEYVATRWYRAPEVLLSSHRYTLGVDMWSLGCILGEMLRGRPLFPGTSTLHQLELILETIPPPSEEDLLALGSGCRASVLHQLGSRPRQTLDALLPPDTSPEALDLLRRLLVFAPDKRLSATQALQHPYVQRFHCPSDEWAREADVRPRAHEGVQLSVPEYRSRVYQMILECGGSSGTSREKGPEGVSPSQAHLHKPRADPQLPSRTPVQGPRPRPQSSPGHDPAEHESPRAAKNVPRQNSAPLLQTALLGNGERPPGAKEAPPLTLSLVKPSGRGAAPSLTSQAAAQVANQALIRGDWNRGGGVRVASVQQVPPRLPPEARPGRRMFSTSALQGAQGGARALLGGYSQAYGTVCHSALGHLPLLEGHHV

[9] = target: GTP-binding nuclear protein Ran (Homo sapiens, UniProt P62826)
[10] = target: T3, Cysteine--tRNA ligase, cytoplasmic (Homo sapiens, UniProt P49589)
T3 sequence (P49589 whole entry): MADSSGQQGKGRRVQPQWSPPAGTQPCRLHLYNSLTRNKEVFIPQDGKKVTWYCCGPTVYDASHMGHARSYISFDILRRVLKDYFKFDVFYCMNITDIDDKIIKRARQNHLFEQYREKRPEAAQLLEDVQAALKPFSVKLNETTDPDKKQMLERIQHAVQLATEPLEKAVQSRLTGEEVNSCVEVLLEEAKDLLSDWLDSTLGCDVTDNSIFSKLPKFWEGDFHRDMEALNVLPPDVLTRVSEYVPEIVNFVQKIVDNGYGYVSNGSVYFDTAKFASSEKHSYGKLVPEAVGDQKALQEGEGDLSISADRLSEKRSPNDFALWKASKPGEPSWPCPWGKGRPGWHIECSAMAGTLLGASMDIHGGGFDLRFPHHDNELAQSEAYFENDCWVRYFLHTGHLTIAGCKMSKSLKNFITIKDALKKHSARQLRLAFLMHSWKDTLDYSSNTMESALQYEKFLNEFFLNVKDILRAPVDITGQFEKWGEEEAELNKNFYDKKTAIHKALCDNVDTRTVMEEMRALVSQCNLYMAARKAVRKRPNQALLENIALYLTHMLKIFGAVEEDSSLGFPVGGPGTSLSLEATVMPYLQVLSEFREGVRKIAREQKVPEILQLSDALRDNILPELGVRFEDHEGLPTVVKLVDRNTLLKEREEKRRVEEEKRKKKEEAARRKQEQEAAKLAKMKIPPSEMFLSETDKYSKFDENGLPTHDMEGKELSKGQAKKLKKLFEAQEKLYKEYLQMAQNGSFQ
Also: in the data inactive means no Kd found up to 30 µM.

Sequence of Atypical kinase COQ8A, mitochondrial (Q8NI60 whole entry): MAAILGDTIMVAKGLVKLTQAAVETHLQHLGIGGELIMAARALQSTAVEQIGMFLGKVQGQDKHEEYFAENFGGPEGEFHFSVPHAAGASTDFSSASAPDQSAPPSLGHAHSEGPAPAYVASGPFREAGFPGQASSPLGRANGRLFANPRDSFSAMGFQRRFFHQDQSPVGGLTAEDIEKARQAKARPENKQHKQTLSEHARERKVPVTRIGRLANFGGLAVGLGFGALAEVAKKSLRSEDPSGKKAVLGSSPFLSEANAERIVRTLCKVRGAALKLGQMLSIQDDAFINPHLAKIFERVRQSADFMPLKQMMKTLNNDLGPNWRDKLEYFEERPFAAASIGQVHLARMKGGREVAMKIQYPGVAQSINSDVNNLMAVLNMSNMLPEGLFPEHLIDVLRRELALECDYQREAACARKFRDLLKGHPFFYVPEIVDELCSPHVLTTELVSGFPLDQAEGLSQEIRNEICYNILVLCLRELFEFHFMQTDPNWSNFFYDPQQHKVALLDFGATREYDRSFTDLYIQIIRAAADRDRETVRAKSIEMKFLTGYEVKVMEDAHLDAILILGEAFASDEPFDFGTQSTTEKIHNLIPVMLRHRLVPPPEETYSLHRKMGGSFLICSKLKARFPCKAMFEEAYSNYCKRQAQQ

| SMILES | Kd [1] | Kd [2] | Kd (Midasin) | Kd [3] | Kd [4] | Kd [5] | Kd (Glycine--tRNA ligase) | Kd [6] | Kd [7] | Kd [9] | Kd [10] | Kd [8] |
| --- | --- | --- | --- | --- | --- | --- | --- | --- | --- | --- | --- | --- |
| Cn1ncc(Cl)c1-c1cc(C(=O)N[C@H](CN)Cc2cccc(F)c2)sc1Cl [AFURESERTIB] | > 30 µM (inactive) | > 30 µM (inactive) | > 30 µM (inactive) | > 30 µM (inactive) | > 30 µM (inactive) | > 30 µM (inactive) | > 30 µM (inactive) | > 30 µM (inactive) | > 30 µM (inactive) |  |  | > 30 µM (inactive) |
| CN1CCN(c2ccc3nc(-c4c(N)c5c(F)cccc5[nH]c4=O)[nH]c3c2)CC1 [DOVITINIB] |  |  | > 30 µM (inactive) |  |  |  | > 30 µM (inactive) |  |  | > 30 µM (inactive) | > 30 µM (inactive) |  |
| O=C(Nc1cccc(Cl)c1)Nc1ncc(CCNc2ncnc3ccsc23)s1 [SNS-314] | > 30 µM (inactive) |  | > 30 µM (inactive) |  | > 30 µM (inactive) | > 30 µM (inactive) | > 30 µM (inactive) |  | > 30 µM (inactive) | > 30 µM (inactive) | > 30 µM (inactive) | > 30 µM (inactive) |
| Cc1cn(-c2cc(NC(=O)c3ccc(C)c(Nc4nccc(-c5cccnc5)n4)c3)cc(C(F)(F)F)c2)cn1 [NILOTINIB] |  |  | > 30 µM (inactive) |  |  |  | > 30 µM (inactive) |  |  | > 30 µM (inactive) | > 30 µM (inactive) |  |
| COC(=O)[C@@]1(O)C[C@H]2O[C@]1(C)n1c3ccccc3c3c4c(c5c6ccccc6n2c5c31)C(=O)NC4 [K-252A] | > 30 µM (inactive) | 0.019 µM (active) | > 30 µM (inactive) | 4.85 µM (active) | > 30 µM (inactive) | 0.058 µM (active) | > 30 µM (inactive) | 3.3 µM (active) | > 30 µM (inactive) | > 30 µM (inactive) |  | 0.167 µM (active) |
| Cc1nc(N)sc1-c1ccnc(Nc2ccc(N3CCOCC3)cc2)n1 [CYC-116] | 65.3 µM (active) |  | > 30 µM (inactive) |  | > 30 µM (inactive) | 1.4 µM (active) | > 30 µM (inactive) |  | 0.841 µM (active) | > 30 µM (inactive) | > 30 µM (inactive) | > 30 µM (inactive) |
| COc1cc(N2CCC(N3CCN(C)CC3)CC2)ccc1Nc1ncnc(Nc2ccccc2S(=O)(=O)C(C)C)n1 [ASP-3026] | > 30 µM (inactive) | > 30 µM (inactive) | > 30 µM (inactive) | > 30 µM (inactive) | > 30 µM (inactive) | 0.123 µM (active) | > 30 µM (inactive) | 36.3 µM (active) | > 30 µM (inactive) | > 30 µM (inactive) |  | > 30 µM (inactive) |
| C[C@@H](Nc1cc(F)cc(F)c1)c1cc(C(=O)N(C)C)cc2c(=O)cc(N3CCOCC3)oc12 [AZD-8186] | > 30 µM (inactive) | > 30 µM (inactive) | > 30 µM (inactive) | > 30 µM (inactive) | > 30 µM (inactive) | > 30 µM (inactive) | > 30 µM (inactive) | > 30 µM (inactive) | > 30 µM (inactive) | > 30 µM (inactive) |  | > 30 µM (inactive) |
| C=CC(=O)N1CCC(Oc2cc3c(Nc4ccc(Cl)c(Cl)c4F)ncnc3cc2OC)CC1 [POZIOTINIB] | > 30 µM (inactive) | > 30 µM (inactive) | > 30 µM (inactive) | > 30 µM (inactive) | > 30 µM (inactive) | > 30 µM (inactive) | > 30 µM (inactive) | > 30 µM (inactive) | > 30 µM (inactive) | > 30 µM (inactive) |  | > 30 µM (inactive) |

Second part, led by results:

| Kd [1] | Kd [2] | Kd (Midasin) | Kd [3] | Kd [4] | Kd [5] | Kd (Glycine--tRNA ligase) | Kd [6] | Kd [7] | Kd [9] | Kd [10] | SMILES | Kd [8] |
| --- | --- | --- | --- | --- | --- | --- | --- | --- | --- | --- | --- | --- |
| > 30 µM (inactive) | > 30 µM (inactive) |  | 0.314 µM (active) | > 30 µM (inactive) | > 30 µM (inactive) | > 30 µM (inactive) | 4.32 µM (active) | > 30 µM (inactive) | > 30 µM (inactive) |  | O=C1NC(=O)/C(=C/c2ccc3nccc(-c4ccncc4)c3c2)S1 [GSK-1059615] | > 30 µM (inactive) |
| > 30 µM (inactive) | > 30 µM (inactive) | > 30 µM (inactive) | > 30 µM (inactive) | > 30 µM (inactive) | > 30 µM (inactive) | > 30 µM (inactive) | > 30 µM (inactive) | > 30 µM (inactive) | > 30 µM (inactive) |  | Cn1cc(-c2ccc3nnc(C(F)(F)c4ccc5ncccc5c4)n3n2)cn1 [JNJ-38877605] | > 30 µM (inactive) |
| > 30 µM (inactive) | > 30 µM (inactive) | > 30 µM (inactive) | > 30 µM (inactive) | > 30 µM (inactive) | > 30 µM (inactive) | > 30 µM (inactive) | > 30 µM (inactive) | > 30 µM (inactive) | > 30 µM (inactive) |  | Cn1cc(-c2ccc(F)c(C(F)(F)F)c2)nc1C1CCN(c2ncnc3[nH]ncc23)CC1 [LY-2584702] | > 30 µM (inactive) |
| > 30 µM (inactive) | > 30 µM (inactive) | > 30 µM (inactive) | > 30 µM (inactive) | > 30 µM (inactive) | > 30 µM (inactive) | > 30 µM (inactive) | > 30 µM (inactive) | > 30 µM (inactive) | > 30 µM (inactive) |  | CNC(=O)c1ccc(C)c(-n2c(C)cc(OCc3ccc(F)cc3F)c(Br)c2=O)c1 [PH-797804] | > 30 µM (inactive) |
|  |  | > 30 µM (inactive) |  |  |  | > 30 µM (inactive) |  |  | > 30 µM (inactive) | > 30 µM (inactive) | CCn1c(-c2nonc2N)nc2c(C#CC(C)(C)O)ncc(OC[C@H]3CCCNC3)c21 [GSK-690693] |  |
| > 30 µM (inactive) | 0.293 µM (active) | > 30 µM (inactive) | > 30 µM (inactive) | > 30 µM (inactive) | > 30 µM (inactive) | > 30 µM (inactive) | > 30 µM (inactive) | > 30 µM (inactive) | > 30 µM (inactive) |  | C1=C/COCc2cc(ccc2OCCN2CCCC2)Nc2nccc(n2)-c2cccc(c2)COC/1 [PACRITINIB] | > 30 µM (inactive) |
|  |  | > 30 µM (inactive) |  |  |  | > 30 µM (inactive) |  |  | > 30 µM (inactive) | > 30 µM (inactive) | Nc1nc(N)c2nc(-c3cccc(O)c3)c(-c3cccc(O)c3)nc2n1 [TG100-115] |  |
| > 30 µM (inactive) | > 30 µM (inactive) | > 30 µM (inactive) | > 30 µM (inactive) | > 30 µM (inactive) | > 30 µM (inactive) | > 30 µM (inactive) | > 30 µM (inactive) | > 30 µM (inactive) |  |  | Cc1c(F)cc(C(=O)NC2CC2)cc1-c1ccc(C(=O)NCC(C)(C)C)cn1 [LOSMAPIMOD] | > 30 µM (inactive) |
